{"source": "patent US9371335B2", "about": "“Spirothienopyran-piperidine derivatives as ORL-1 receptor antagonists for their use in the treatment of alcohol dependence and abuse” (Eli Lilly and Company, priority 2011, dated 2016)", "format_in_all_cases": "in vivo, rat", "key": {"msP rats": {"test_system": "msP rats", "assay": "Free-choice ethanol self-administration in msP rats", "conditions": "24 hr", "protocol": "In a separate study, male msP rats are obtained from a private colony (University of Camerino, Marche, Italy), individually-housed with food, 10% ethanol (v/v in water), and water available ad libitum, and maintained on a 12 hr. light/dark cycle. Ethanol and water are measured using graduated bottles to assess the volume of ethanol consumed (Economidou D, Fedeli A, Fardon R M, Weiss F, Massi M and Ciccocioppo R (2006) Effect of novel nociceptin/orphanin FQ-NOP receptor ligands on ethanol drinking in alcohol-preferring msP rats. Peptides 27:3299-3306.). Food intake is monitored by weighing the food receptacle. Once rats reach a stable baseline of voluntary ethanol consumption of 5-6 g/kg/day (approximately 4-5 months of age), rats are treated orally with test compounds in the dose range of 3 or 30 mg/kg in a formulation consisting of 1:1 distilled water: 1 M H3PO4 (1-5 mL/kg dose volume), one hour prior to onset of the dark cycle, using a within-subjects, crossover design (3-4 day washout between subsequent doses). Ethanol, water, and food are presented to the animals at the onset of the dark cycle, and consumption of food and fluids is measured at 2, 8, and 24 hr intervals."}, "P rats": {"test_system": "P rats", "assay": "Free-choice ethanol self-administration in P rats", "conditions": "for Mean EtOH Consumed in g/kg (Drug-treated) / Reduction vs. Vehicle (EtOH consumed): 12 hr; for ethanol self-administration: free-choice access, P rats and msP rats", "from_the_text": "Free-Choice Ethanol Self-Administration in Alcohol-Preferring Rats: P Rats:\nIn this procedure (modified from Rodd-Henricks Z A, McKinzie D L, Shaikh S R, Murphy J M, McBride W J, Lumeng L and Li T K (2000) Alcohol deprivation effect is prolonged in the alcohol preferring (P) rat after repeated deprivations. Alcohol Clin Exp Res 24:8-16), female P rats are obtained from a private colony (Taconic, Germantown, N.Y.), individually-housed with food, 15% ethanol (v/v, in water), and water available ad libitum, and maintained on a 12 hr. light/dark cycle (lights off at 16:00). The chambers are equipped with a force transduction system (TSE Systems, Bad Homburg, Germany) attached to the ethanol, water, and food receptacles to enable continuous monitoring of food and liquid consumption. Rats voluntarily consume 15% ethanol with a mean daily intake of roughly 5 g/kg for several months prior to drug testing. Rats are treated orally with vehicle or test compounds in the dose range of 3, 10, or 30 mg/kg (3 mL/kg dose volume, dissolved in a vehicle consisting of 20% Captisol® in 25 mM phosphate buffer at pH=2), or naltrexone (10 mg/kg, 1 mL/kg dose volume, dissolved in water) immediately prior to the onset of the dark cycle, using a within-subjects, crossover design (3-4 day washout between subsequent doses). In a separate experiment, rats receive oral administration of vehicle followed by 4 daily oral doses of vehicle or 30 mg/kg test compound immediately prior to the onset of the dark cycle, using a between-subjects design."}, "[1]": {"test_system": "Alcohol-Preferring (P) rats", "assay": "Operant ethanol self-administration in P rats (progressive ratio schedule)", "conditions": "for ethanol-motivated responding: P rats on progressive ratio schedule, result in words; for Reduction vs. Vehicle (lever presses) / Mean Number of Lever Presses (Drug-treated): female P rats; for Mean Number of Lever Presses (Drug-treated): 30-min progressive ratio session", "from_the_text": "Operant Self-Administration in P rats:\nFemale P rats are obtained and pair-housed from a private colony (Taconic, Germantown, N.Y.). In order to reduce novelty-induced avoidance of ethanol, the water bottle on the homecage is replaced with a bottle containing 15% ethanol in water (v/v, in water) for two days prior to operant training. Throughout the rest of the experiment, rats receive ad libitum access to water and standard laboratory chow, with no further access to ethanol in the homecage.\nRats are trained to press a lever for ethanol reinforcement in daily 30-min sessions conducted in standard rat operant chambers contained within sound-attenuating chambers (MED Associates, Inc., St. Albans, Vt.). The chambers consist of two stainless steel and two clear Plexiglas walls. The floor grid of the operant chambers consists of 0.5 cm diameter stainless steel bars placed approximately 1.5 cm apart. Each operant chamber contains two retractable operant levers located approximately 6 cm above the grid floor and 13 cm apart. A recessed trough is located in the space between the levers, through which a dipper cup (0.1 mL capacity) is raised to deliver response-contingent ethanol (15%, v/v, in water). Upon a reinforced response, a stimulus light is illuminated above the lever on which the response was made throughout the 4-sec dipper cup access. Operation of the stimuli and behavioral responses are controlled and recorded by personal computer for offline analysis (MED Associates, Inc., St. Albans, Vt.).\nDuring operant training, responses on either lever are considered correct responses and are rewarded with 0.1 mL ethanol reinforcement. […] Once stable baseline responding is reached on an FR-1 schedule of reinforcement, the response contingency is increased to FR-2 and then again to FR-3 so that 3 lever presses are required for each reinforcement. […] Specifically, the response requirement is increased as follows: all rats begin each session at an FR-1 schedule of reinforcement; after three reinforcements, the schedule is increased to FR-2; after three reinforcements at that level, the schedule is increased by two to FR-4; after three reinforcements, the schedule is increased by two to FR-6; and so on (see for e.g. Oster S M, Toalston J E, Kuc K A, Pommer T J, Murphy J M, Lumeng L, Bell R L, McBride W J and Rodd Z A (2006) Effects of multiple alcohol deprivations on operant ethanol self-administration by high-alcohol-drinking replicate rat lines. Alcohol 38:155-164). Each session lasts a total of 30 min, after which, all stimuli are turned off and levers are retracted. […] The amount of ethanol consumed is calculated from the number of active lever presses, and converted into g/kg EtOH consumed. Rats receive oral administration of vehicle or test compound in the dose range of 3, 10, or 30 mg/kg (3 mL/kg dose volume, dissolved in a vehicle consisting of 20% Captisol® in 25 mM phosphate buffer at pH=2), or the nonselective opioid receptor antagonist naltrexone (10 mg/kg) as a positive control, 60 min. prior to the session, using a within-subjects, crossover design (3-4 day washout between subsequent doses). On a separate occasion, rats receive oral administration of vehicle or 30 mg/kg test compound (1 mL/kg dose volume, dissolved in a vehicle consisting of 20% Captisol® in 25 mM phosphate buffer), 30 min prior to the session, using a crossover design."}, "[2]": {"conditions": "P rats, 30 mg/kg oral once daily, day 2"}, "[3]": {"conditions": "P rats, 30 mg/kg oral once daily, day 3"}, "[4]": {"conditions": "P rats, 30 mg/kg oral once daily, day 4"}, "[5]": {"conditions": "P rats, 30 mg/kg oral once daily, day 5"}}}
{"smiles": "Cc1nn(-c2ncccc2CO)cc1CN1CCC2(CC1)OCC(F)(F)c1cc(Cl)sc12", "note": "[Compound 1, [2-[4-[(2-chloro-4,4-difluoro-spiro[5H-thieno[2,3-c]pyran-7,4′-piperidine]-1′-yl)methyl]-3-methyl-pyrazol-1-yl]-3-pyridyl]methanol]", "values": [{"measurement": "Mean EtOH Consumed in g/kg (Drug-treated)", "setting": "msP rats; 3 mg/kg oral", "result": 6.7, "unit": "g/kg"}, {"measurement": "Reduction vs. Vehicle (EtOH consumed)", "setting": "msP rats; 3 mg/kg oral", "result": 8.2, "unit": "%"}, {"measurement": "Mean EtOH Consumed in g/kg (Drug-treated)", "setting": "msP rats; 30 mg/kg oral", "result": 4.4, "unit": "g/kg"}, {"measurement": "Reduction vs. Vehicle (EtOH consumed)", "setting": "msP rats; 30 mg/kg oral", "result": 39.7, "unit": "%"}, {"measurement": "Mean EtOH Consumed in g/kg (Drug-treated)", "setting": "P rats; P rats, 3 mg/kg oral", "result": 3.54, "unit": "g/kg"}, {"measurement": "Reduction vs. Vehicle (EtOH consumed)", "setting": "P rats; P rats, 3 mg/kg oral", "result": 25.2, "unit": "%"}, {"measurement": "Mean EtOH Consumed in g/kg (Drug-treated)", "setting": "P rats; P rats, 10 mg/kg oral", "result": 3.67, "unit": "g/kg"}, {"measurement": "Reduction vs. Vehicle (EtOH consumed)", "setting": "P rats; P rats, 10 mg/kg oral", "result": 22.4, "unit": "%"}, {"measurement": "Mean EtOH Consumed in g/kg (day 2)", "setting": "P rats; [2]", "result": 1.59, "unit": "g/kg"}, {"measurement": "Reduction vs. vehicle (EtOH consumed, day 2)", "setting": "P rats; [2]", "result": 63.6, "unit": "%"}, {"measurement": "Mean EtOH Consumed in g/kg (day 3)", "setting": "P rats; [3]", "result": 2.02, "unit": "g/kg"}, {"measurement": "Reduction vs. vehicle (EtOH consumed, day 3)", "setting": "P rats; [3]", "result": 61.8, "unit": "%"}, {"measurement": "Mean EtOH Consumed in g/kg (day 4)", "setting": "P rats; [4]", "result": 2.69, "unit": "g/kg"}, {"measurement": "Reduction vs. vehicle (EtOH consumed, day 4)", "setting": "P rats; [4]", "result": 45.0, "unit": "%"}, {"measurement": "Mean EtOH Consumed in g/kg (day 5)", "setting": "P rats; [5]", "result": 2.50, "unit": "g/kg"}, {"measurement": "Reduction vs. vehicle (EtOH consumed, day 5)", "setting": "P rats; [5]", "result": 54.0, "unit": "%"}, {"measurement": "Mean EtOH Consumed in g/kg (Drug-treated)", "setting": "P rats; P rats, 30 mg/kg oral", "result": 1.50, "unit": "g/kg"}, {"measurement": "Reduction vs. Vehicle (EtOH consumed)", "setting": "P rats; P rats, 30 mg/kg oral", "result": 68.3, "unit": "%"}, {"measurement": "suppression of ethanol intake on repeated dosing", "setting": "P rats; P rats, 4 days of once daily dosing, result in words", "result": "maintain suppression of ethanol intake in P rats throughout 4 days of once daily dosing without tachyphylaxis"}, {"measurement": "ethanol self-administration", "setting": "P rats; result in words", "result": "significantly reduce ethanol self-administration"}, {"measurement": "ethanol-motivated responding", "setting": "[1]", "result": "reduce ethanol-motivated responding"}, {"measurement": "Reduction vs. Vehicle (lever presses)", "setting": "[1]; 3 mg/kg oral", "result": 4.6, "unit": "%"}, {"measurement": "Mean Number of Lever Presses (Drug-treated)", "setting": "[1]; 3 mg/kg oral", "result": 412.58}, {"measurement": "Reduction vs. Vehicle (lever presses)", "setting": "[1]; 10 mg/kg oral", "result": 23.7, "unit": "%"}, {"measurement": "Mean Number of Lever Presses (Drug-treated)", "setting": "[1]; 10 mg/kg oral", "result": 330}, {"measurement": "Reduction vs. Vehicle (lever presses)", "setting": "[1]; 30 mg/kg oral", "result": 55.8, "unit": "%"}, {"measurement": "Mean Number of Lever Presses (Drug-treated)", "setting": "[1]; 30 mg/kg oral", "result": 191.25}]}
{"smiles": "Cc1nn(-c2ncccc2F)cc1CN1CCC2(CC1)OCC(F)(F)c1cc(Cl)sc12", "note": "[Compound 2, 2-Chloro-4,4-difluoro-1′-[[1-(3-fluoro-2-pyridyl)-3-methyl-pyrazol-4-yl]methyl]spiro[5H-thieno[2,3-c]pyran-7,4′-piperidine]]", "values": [{"measurement": "Mean EtOH Consumed in g/kg (Drug-treated)", "setting": "msP rats; 3 mg/kg oral", "result": 5.6, "unit": "g/kg"}, {"measurement": "Reduction vs. Vehicle (EtOH consumed)", "setting": "msP rats; 3 mg/kg oral", "result": 20.0, "unit": "%"}, {"measurement": "Mean EtOH Consumed in g/kg (Drug-treated)", "setting": "msP rats; 30 mg/kg oral", "result": 5, "unit": "g/kg"}, {"measurement": "Reduction vs. Vehicle (EtOH consumed)", "setting": "msP rats; 30 mg/kg oral", "result": 28.6, "unit": "%"}, {"measurement": "Mean EtOH Consumed in g/kg (Drug-treated)", "setting": "P rats; P rats, 10 mg/kg oral", "result": 3.70, "unit": "g/kg"}, {"measurement": "Reduction vs. Vehicle (EtOH consumed)", "setting": "P rats; P rats, 10 mg/kg oral", "result": 28.3, "unit": "%"}, {"measurement": "Mean EtOH Consumed in g/kg (Drug-treated)", "setting": "P rats; P rats, 30 mg/kg oral", "result": 3.40, "unit": "g/kg"}, {"measurement": "Reduction vs. Vehicle (EtOH consumed)", "setting": "P rats; P rats, 30 mg/kg oral", "result": 34.1, "unit": "%"}, {"measurement": "ethanol self-administration", "setting": "P rats; result in words", "result": "significantly reduce ethanol self-administration"}, {"measurement": "ethanol-motivated responding", "setting": "[1]", "result": "reduce ethanol-motivated responding"}, {"measurement": "Reduction vs. Vehicle (lever presses)", "setting": "[1]; 30 mg/kg oral", "result": 61.9, "unit": "%"}, {"measurement": "Mean Number of Lever Presses (Drug-treated)", "setting": "[1]; 30 mg/kg oral", "result": 143.31}]}
